{"source": "patent US6756229B1", "about": "“Human cell line showing stable expression of cytochromes P450” (Takeda Chemical Industries, Ltd., priority 1999, dated 2004)", "key": {"CYP2B6": {"target": "T1, CYP2B6 (Homo sapiens, UniProt P20813)", "T1 construct": "expressed in transfected cells", "T1 sequence (P20813 1-491)": "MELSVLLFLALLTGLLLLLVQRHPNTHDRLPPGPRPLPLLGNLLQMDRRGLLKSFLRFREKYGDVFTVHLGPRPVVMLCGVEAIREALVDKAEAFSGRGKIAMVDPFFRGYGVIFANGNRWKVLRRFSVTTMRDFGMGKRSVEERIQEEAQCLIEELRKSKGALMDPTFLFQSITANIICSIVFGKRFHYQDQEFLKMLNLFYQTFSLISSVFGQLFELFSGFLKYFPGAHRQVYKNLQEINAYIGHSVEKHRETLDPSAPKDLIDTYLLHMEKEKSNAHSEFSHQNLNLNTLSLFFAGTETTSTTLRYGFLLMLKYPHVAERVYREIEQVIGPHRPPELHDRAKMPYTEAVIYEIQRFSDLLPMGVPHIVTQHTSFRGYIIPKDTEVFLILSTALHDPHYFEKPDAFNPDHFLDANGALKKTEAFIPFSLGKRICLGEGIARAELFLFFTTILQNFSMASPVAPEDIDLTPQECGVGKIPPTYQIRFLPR", "experiment": "Kinetic analysis, 7-ethoxycoumarin O-deethylase activity in Hepc/2B6.68", "assay_type": "cell-based", "experimental": "The reaction solution was diluted to 10-fold with 0.1M Tris-HCl (pH 7.4) and fluorescent intensity was measured at an excited wavelength of 390 nm and a fluorescence wavelength of 440 nm, using a spectrofluorometer (Hitatchi Spectrofluorometer F-2000) to quantify 7-hydroxycoumarin formed. The product purchased from Extrasynthese was used as the standard substance for 7-hydroxycoumarin."}, "HepG2 [1]": {"system": "HepG2", "experiment": "MTT assay, cytotoxicity of acetaminophen in HepG2", "assay_type": "cell-based, human", "details": "HepG2, without BSO, 4 days incubation (FIG. 1)", "experimental": "(§1) HepG2 or CYP2E1-expressing cells (Hepc/2E1.3-8) (4×10^5 cells/ml) were incubated with acetaminophen (Wako Junyaku K. K. ) diluted to a given concentration in DMEM medium supplemented with 5% FCS in a CO2 incubator. In the test to terminate glutathione conjugation, L-Buthionine [S,R]-Sulfoximine (BSO, Sigma) was added to the medium in a final concentration of 100 μM. After incubation for 4 days, 20 μl of a solution of 3-(4,5-dimethyl-2-thiazolyl)-2,5-diphenyl-2H-tetrazolium bromide (MTT, Sigma) adjusted to 1 mg/ml with PBS (Flow) was added to each well followed by incubation at 37° C. for 3 hours. Next, 100 μl of 0.01N HCl solution containing 10% SDS was added to each well. After incubation at 37° C. overnight, absorbance was measured at 590 nm."}, "[2]": {"system": "CYP2E1-expressing cells (Hepc/2E1.3-8)", "experiment": "MTT assay, cytotoxicity of acetaminophen in CYP2E1-expressing cells", "assay_type": "cell-based, human", "details": "4 days incubation (FIG. 1)", "experimental": "as §1"}, "HepG2 [3]": {"system": "HepG2", "experiment": "LDH leakage test, acetaminophen in HepG2", "assay_type": "cell-based, human", "experimental": "(§2) Two plates each with the same design as in the MTT assay were prepared (for determination of LDH activity in the culture supernatant and for determination of LDH activity in the culture supernatant+LDH activity in the cells). After incubating for 3 days in a CO2 incubator, 10 μl of the supernatant was taken from each well of one plate (for determination of LDH activity in the supernatant), transferred to another 96-well plate, and 40 μl of distilled water was further added. On the other hand, 10 μl of 10% Triton X100 (Wako Junyaku K. K. ) was added to each well of another plate (for determination of LDH activity in the culture supernatant+LDH activity in the cells), followed by shaking and incubation at 37° C. for 45 minutes. After centrifuging at 1500 rpm for 5 minutes, 10 μl of the supernatant was taken from each well, transferred to another 96-well plate, and 40 μl of distilled water was further added. The LDH activity of each well in these plates was measured using Cytotox 96 Non-Radioactive Cytotoxicity Assay Kit (Promega). Multiscanning MS-UV was used for the measurement of absorbance. A ratio of the LDH activity in the supernatant to (the LDH activity in the supernatant+ the LDH activity in the cells) was made an LDH leakage rate."}, "[4]": {"system": "CYP2E1-expressing cells (Hepc/2E1.3-8)", "experiment": "LDH leakage test, acetaminophen in CYP2E1-expressing cells", "assay_type": "cell-based, human", "experimental": "as §2"}, "CYP2A6": {"target": "T2, CYP2A6 (Homo sapiens, UniProt P11509)", "T2 construct": "expressed in transfected cells", "T2 sequence (P11509 1-494)": "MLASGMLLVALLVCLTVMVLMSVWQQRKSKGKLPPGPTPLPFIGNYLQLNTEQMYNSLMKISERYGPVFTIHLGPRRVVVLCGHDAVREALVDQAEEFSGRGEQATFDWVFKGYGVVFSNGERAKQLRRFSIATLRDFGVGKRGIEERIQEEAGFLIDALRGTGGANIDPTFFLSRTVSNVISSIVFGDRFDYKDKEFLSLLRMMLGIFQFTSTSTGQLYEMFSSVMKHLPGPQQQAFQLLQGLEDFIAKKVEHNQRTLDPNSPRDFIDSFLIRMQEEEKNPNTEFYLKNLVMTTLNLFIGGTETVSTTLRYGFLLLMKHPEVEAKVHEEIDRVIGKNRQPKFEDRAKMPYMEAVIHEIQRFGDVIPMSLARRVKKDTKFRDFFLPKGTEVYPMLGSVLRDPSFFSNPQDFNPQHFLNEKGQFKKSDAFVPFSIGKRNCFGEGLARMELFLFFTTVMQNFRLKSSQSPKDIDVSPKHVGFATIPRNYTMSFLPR", "experiment": "Kinetic analysis, coumarin 7-hydroxylase activity in Hepc/2A6L.9", "assay_type": "cell-based", "description": "The product purchased from Extrasynthese was used as the standard substance for 7-hydroxycoumarin."}, "[5]": {"system": "CYP2B6-expressing cells (Hepc/2B6.68)", "details": "Hepc/2B6.68, 4 days incubation; plateau above 2 mM", "procedure": "Two plates each with the same design as in the MTT assay were prepared (for determination of LDH activity in the culture supernatant and for determination of LDH activity in the culture supernatant+LDH activity in the cells). After incubating for 4 days in a CO2 incubator, 10 μl of the supernatant was taken from each well of one plate (for determination of LDH activity in the supernatant), transferred to another 96-well plate, and 40 μl of distilled water was further added. On the other hand, 10 μl of 10% Triton X100 was added to each well of another plate (for determination of LDH activity in the culture supernatant+LDH activity in the cells), followed by shaking and incubation at 37° C. for 45 minutes. After centrifuging at 1500 rpm for 5 minutes, 10 μl of the supernatant was taken from each well, transferred to another 96-well plate, and 40 μl of distilled water was further added. The LDH activity of each well in these plates was measured using Cytotox 96 Non-Radioactive Cytotoxicity Assay Kit (Promega). Multiscanning MS-UV was used for the measurement of absorbance. A ratio of the LDH activity in the supernatant to (the LDH activity in the supernatant + the LDH activity in the cells) was made an LDH leakage rate."}, "[6]": {"system": "CYP2B6-expressing cells (Hepc/2B6.68)", "details": "Hepc/2B6.68, 4 days incubation (printed FIG. 5)", "procedure": "(§3) After incubation for 4 days, 20 μl of a MTT (Sigma) solution adjusted to 1 mg/ml with PBS (Flow) was added to each well followed by incubation at 37° C. for 3 hours. Next, 100 μl of 0.01N HCl solution containing 10% SDS was added to each well. After incubation at 37° C. overnight, absorbance was measured at 590 nm."}, "HepG2 [7]": {"system": "HepG2", "details": "HepG2, 4 days incubation (printed FIG. 4)", "procedure": "as §3\nTwo plates each with the same design as in the MTT assay were prepared (for determination of LDH activity in the culture supernatant and for determination of LDH activity in the culture supernatant+LDH activity in the cells). After incubating for 4 days in a CO2 incubator, 10 μl of the supernatant was taken from each well of one plate (for determination of LDH activity in the supernatant), transferred to another 96-well plate, and 40 μl of distilled water was further added. On the other hand, 10 μl of 10% Triton X100 was added to each well of another plate (for determination of LDH activity in the culture supernatant+LDH activity in the cells), followed by shaking and incubation at 37° C. for 45 minutes. After centrifuging at 1500 rpm for 5 minutes, 10 μl of the supernatant was taken from each well, transferred to another 96-well plate, and 40 μl of distilled water was further added. The LDH activity of each well in these plates was measured using Cytotox 96 Non-Radioactive Cytotoxicity Assay Kit (Promega). Multiscanning MS-UV was used for the measurement of absorbance. […]"}, "CYP2E1": {"target": "CYP2E1 (Homo sapiens, UniProt P05181)", "sequence (P05181 whole entry)": "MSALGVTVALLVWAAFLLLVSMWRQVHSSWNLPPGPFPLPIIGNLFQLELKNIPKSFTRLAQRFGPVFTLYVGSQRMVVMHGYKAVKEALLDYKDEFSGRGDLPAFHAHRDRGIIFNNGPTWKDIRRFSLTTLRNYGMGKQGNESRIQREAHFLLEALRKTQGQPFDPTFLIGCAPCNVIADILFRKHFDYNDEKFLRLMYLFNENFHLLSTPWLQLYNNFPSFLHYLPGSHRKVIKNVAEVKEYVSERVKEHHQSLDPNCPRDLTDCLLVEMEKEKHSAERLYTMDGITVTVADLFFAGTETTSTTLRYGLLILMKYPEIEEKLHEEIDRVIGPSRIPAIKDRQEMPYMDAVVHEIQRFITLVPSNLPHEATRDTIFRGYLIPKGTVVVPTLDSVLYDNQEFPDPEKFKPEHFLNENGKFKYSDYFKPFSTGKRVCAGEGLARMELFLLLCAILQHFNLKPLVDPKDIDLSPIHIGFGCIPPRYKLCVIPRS", "details": "Hepc/2E1.3-8 cells incubated 3 days with the substance; 500 μM p-nitrophenol (FIG. 7)", "procedure": "The medium was suctioned and the cells attached to the plate were washed with Phenol Red-free DMEM medium. Subsequently, p-nitrophenol previously diluted to 500 μM was added in 500 μl/well. After reacting at 37° C., the reaction solution was recovered from each well. To 100 μl of the reaction solution 50 μl of NaOH (Wako Junyaku K. K. ) was added, and insoluble matters were removed by centrifugation. By measuring absorbance at 540 nm-620 nm with multi-scanning MS-UV (Labo Systems), 4-nitrocatechol formed was quantified."}, "CYP3A4": {"target": "CYP3A4 (Homo sapiens, UniProt P08684)", "sequence (P08684 whole entry)": "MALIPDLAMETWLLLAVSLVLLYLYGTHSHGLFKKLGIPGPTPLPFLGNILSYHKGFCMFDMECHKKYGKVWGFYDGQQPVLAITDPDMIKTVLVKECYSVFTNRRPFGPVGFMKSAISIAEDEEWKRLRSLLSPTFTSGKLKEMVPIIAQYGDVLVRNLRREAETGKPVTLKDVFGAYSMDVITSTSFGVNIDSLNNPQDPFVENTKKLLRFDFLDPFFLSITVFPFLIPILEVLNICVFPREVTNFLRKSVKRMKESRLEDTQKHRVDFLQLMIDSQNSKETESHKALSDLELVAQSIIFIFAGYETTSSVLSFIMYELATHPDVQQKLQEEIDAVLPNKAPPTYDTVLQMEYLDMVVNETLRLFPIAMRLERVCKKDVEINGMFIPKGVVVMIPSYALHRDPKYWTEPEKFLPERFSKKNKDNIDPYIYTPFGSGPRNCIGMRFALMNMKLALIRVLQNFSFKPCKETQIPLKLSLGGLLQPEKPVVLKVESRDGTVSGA", "experiment": "Kinetic analysis, testosterone 6β-hydroxylase activity in Hepc/3A4.5", "experimental": "Subsequently, testosterone previously diluted to 100 μM was added in 500 μl/well.\nA program was made up to set for a linear gradient of 0-100% solution B in 0-20 minutes, 100% solution B in 20-30 minutes and since then 100% solution."}, "[8]": {"system": "CYP1A1-expressing cells (Hepc/1A1.4)", "experiment": "MTT assay, cytotoxicity of benzanthracene in CYP1A1-expressing cells", "assay_type": "cell-based, human", "details": "Hepc/1A1.4 compared with HepG2, 4 days incubation, concentration-dependent (FIG. 3)", "procedure": "CYP1A1-expressing cells (Hepc/1A1.4) (4×10^5 cells/ml) were incubated with benzanthracene (Sigma) diluted to a given concentration in DMEM medium supplemented with 5% FCS in a CO2 incubator. After incubation for 4 days, 20 μl of a MTT (Sigma) solution adjusted to 1 mg/ml with PBS (Flow) was added to each well followed by incubation at 37° C. for 3 hours. Next, 100 μl of 0.01N HCl solution containing 10% SDS was added to each well. After incubation at 37° C. overnight, absorbance was measured at 590 nm."}}}
{"smiles": "CCOc1ccc2ccc(=O)oc2c1", "note": "[7-ethoxycoumarin]", "values": [{"measurement": "Vmax", "setting": "CYP2B6; Lineweaver-Burk plot", "result": 80, "unit": "pmol/min/mg"}, {"measurement": "Km", "setting": "CYP2B6; human, Hepc/2B6.68 cells expressing CYP2B6, Lineweaver-Burk plot", "result": 81, "unit": "µM"}]}
{"smiles": "CC(=O)Nc1ccc(O)cc1", "note": "[Acetaminophen, acetaminophen]", "values": [{"measurement": "MTT activity", "setting": "HepG2 [1]", "result": "slight decrease of the MTT activity"}, {"measurement": "MTT activity in the presence of BSO", "setting": "[2]; Hepc/2E1.3-8 + 100 μM BSO", "result": "increased sensitivity to acetaminophen"}, {"measurement": "MTT activity", "setting": "[2]; Hepc/2E1.3-8, without BSO", "result": "slight decrease of the MTT activity"}, {"measurement": "effect of the presence of BSO on LDH leakage", "setting": "HepG2 [3]; HepG2 + 100 μM BSO (FIG. 2)", "result": "Any effect expected in the presence of BSO was not noted"}, {"measurement": "leakage of LDH", "setting": "HepG2 [3]; HepG2, without BSO, 3 days incubation (FIG. 2)", "result": "slight leakage of LDH"}, {"measurement": "enhancement of sensitivity to acetaminophen in the presence of BSO (LDH leakage)", "setting": "[4]; Hepc/2E1.3-8 + 100 μM BSO (glutathione exhausted), versus without BSO", "result": "approximately 4 times"}, {"measurement": "leakage of LDH", "setting": "[4]; Hepc/2E1.3-8, without BSO, 3 days incubation (FIG. 2)", "result": "slight leakage of LDH"}]}
{"smiles": "O=c1ccc2ccccc2o1", "note": "[Coumarin]", "values": [{"measurement": "Vmax", "setting": "CYP2A6; Lineweaver-Burk plot", "result": 412, "unit": "pmol/min/mg"}, {"measurement": "Km", "setting": "CYP2A6; human, Hepc/2A6L.9 cells expressing CYP2A6, Lineweaver-Burk plot", "result": 11.1, "unit": "µM"}]}
{"smiles": "O=P1(N(CCCl)CCCl)NCCCO1", "note": "(stereo not shown) [Cyclophosphamide, cyclophosphamide]", "values": [{"measurement": "leakage of LDH", "setting": "[5]", "result": "concentration-dependently in the concentration up to 2 mM"}, {"measurement": "MTT activity", "setting": "[6]", "result": "slight decrease of the MTT activity concentration-dependently"}, {"measurement": "cytotoxicity", "setting": "HepG2 [7]", "result": "slightly cytotoxic"}]}
{"smiles": "C[S+](C)[O-]", "note": "[DMSO, dimethylsulfoxide]", "values": [{"measurement": "CYP2E1 activity induction (p-nitrophenol hydroxylation, 4-nitrocatechol formed)", "setting": "CYP2E1", "result": "the enzyme activity increases"}]}
{"smiles": "C[C@]12CC[C@H]3[C@@H](CCC4=CC(=O)CC[C@@]43C)[C@@H]1CC[C@@H]2O", "note": "[Testosterone]", "values": [{"measurement": "Vmax", "setting": "CYP3A4; Hepc/3A4.5, testosterone 6β-hydroxylase activity, Lineweaver-Burk plot", "result": 71, "unit": "pmol/min/mg"}, {"measurement": "Km", "setting": "CYP3A4; human, Hepc/3A4.5 cells expressing CYP3A4", "result": 96, "unit": "µM"}]}
{"smiles": "c1ccc2cc3c(ccc4ccccc43)cc2c1", "note": "[benzanthracene]", "values": [{"measurement": "reduction in the MTT activity", "setting": "[8]", "result": "more potent reduction in the MTT activity"}]}
{"smiles": "CCO", "note": "[ethanol]", "values": [{"measurement": "CYP2E1 activity induction (p-nitrophenol hydroxylation, 4-nitrocatechol formed)", "setting": "CYP2E1", "result": "the enzyme activity increases"}]}
